Columns and labels:
[1] = Relaxivity (r1, r2) in reconstituted human serum (Seronorm™ Human); assay type: physicochemical; settings: Between 0 and 1 mM (Seronorm™ Human), 20 MHz, 39° C.
Description: (§1) Relaxivity values of the contrast agent of the present invention have been tested either in saline or in human serum obtained by Seronorm™ Human, freeze-dried human serum produced by Nycomed Pharma AS, Oslo, Norway. Serum obtained from said Seronorm™ is substantially equivalent to the fresh one, so its use in the relaxivity determination grants a good picture of the “in vivo” behaviour and, further, an excellent reproducibility of this test.
The compounds object of the present invention are characterised by very high r1 and r2 relaxivity values. When measured in Seronorm™ Human at 20 MHz, at a temperature of 39° C., and at a concentration comprised from 0 to 1 mM, compounds of the present invention usually have r1 relaxivity equal to or, preferably, higher than 15^s−1mM^−1, thus confirming the formation of unexpectedly strong non-covalent bonds with serum proteins. […] Last, significative amounts of the preferred compounds of the invention have also been found in the urines, showing that, thanks to their binding to HSA, the same are very promising as blood pool diagnostic agents.

[2] = Relaxivity (r1, r2) in saline; assay type: physicochemical; settings: NaCl 0.15 M in water, pH 7.3, 20 MHz, 39° C.
Description: as §1

## O=C(O)CN(CCN(CCN(CC(=O)O)CC(=O)O)C(CCCCNC(=O)C(c1ccccc1)c1ccccc1)C(=O)O)CC(=O)O (centres unmarked)
[1]
  Relaxivity Serum r1: 20.1 mM⁻¹ s⁻¹
[2]
  Relaxivity Saline r1: 5.70 mM⁻¹ s⁻¹

— patent US6458337B1, “Diagnostic imaging contrast agent with improved in serum relaxivity” (Dibra S.p.A, priority 1996, dated 2002)
